Results as given in the supplement of paper PMC11061612.

Key:
Assay in all cases: Bliss excess, mean over the matrix (fraction); higher = more synergy
[1] = test system: KURAMOCHI (Ovarian Carcinoma)
In short: (§1)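 After 24 hours at 37°C and 5% CO2 in 1536-well plates, cells in DMEM/F12 or RPMI plus 10% FBS received two-drug dose matrices for 72 hours. Viability came from CellTiter-Glo 2.0 luminescence and was scaled as inhibition, anchored at 0 by vehicle wells and at 1 by blank wells. Combination Emax is taken as the second-highest inhibition in the matrix, and Bliss excess as the observed combination effect less EA + EB − EA·EB, with EA and EB the single-agent effects.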

[2] = test system: CCRF-CEM (T-Lymphoblastic Leukemia)
In short: as §1

T98G (Glioblastoma) = test system: T98G (Glioblastoma)
In short: as §1

[3] = test system: SNU-5 (Gastric Carcinoma)
In short: as §1

[4] = test system: OVCA420 (Ovarian Carcinoma)
In short: as §1

[5] = test system: TE-15 (Esophageal Squamous Cell Carcinoma)
In short: as §1

[6] = test system: HCC-78 (Lung Adenocarcinoma)
In short: as §1

AGS (Gastric Carcinoma) = test system: AGS (Gastric Carcinoma)
In short: as §1

[7] = test system: RO82-W-1 (Thyroid Gland Carcinoma)
In short: as §1

42-MG-BA (Glioblastoma) = test system: 42-MG-BA (Glioblastoma)
In short: as §1

[8] = test system: LB831-BLC (Bladder Carcinoma)
In short: as §1

[9] = test system: Hs-578-T (Breast Carcinoma)
In short: as §1

[10] = test system: LU-135 (Small Cell Lung Carcinoma)
In short: as §1

[11] = test system: NCI-H82 (Small Cell Lung Carcinoma)
In short: as §1

[12] = test system: Daoy (Other Solid Carcinomas)
In short: as §1

[13] = test system: COLO-205 (Colorectal Carcinoma)
In short: as §1

[14] = test system: ME-1 (Acute Myeloid Leukemia)
In short: as §1

HOS (Osteosarcoma) = test system: HOS (Osteosarcoma)
In short: as §1

KELLY (Neuroblastoma) = test system: KELLY (Neuroblastoma)
In short: as §1

SMILES | Bliss excess [1] | Bliss excess [2] | Bliss excess (T98G (Glioblastoma)) | Bliss excess [3] | Bliss excess [4] | Bliss excess [5] | Bliss excess [6] | Bliss excess (AGS (Gastric Carcinoma)) | Bliss excess [7] | Bliss excess (42-MG-BA (Glioblastoma)) | Bliss excess [8] | Bliss excess [9] | Bliss excess [10] | Bliss excess [11] | Bliss excess [12] | Bliss excess [13] | Bliss excess [14] | Bliss excess (HOS (Osteosarcoma)) | Bliss excess (KELLY (Neuroblastoma))
CCN(CCO)CCCOc1ccc2c(Nc3cc(CC(=O)Nc4cccc(F)c4)[nH]n3)ncnc2c1 [AZD2811] + C=CCn1c(=O)c2cnc(Nc3ccc(N4CCN(C)CC4)cc3)nc2n1-c1cccc(C(C)(C)O)n1 [AZD1775] (first compound max 1 µM, partner max 1 µM) | -0.0602 | 0.006 | -0.0167 | -0.0294 | -0.0047 | -0.0576 | 0.0092 | 0.0156 | -0.063 | 0.081 | 0.005 | -0.0212 | -0.0346 | 0.0241 | 0.026 | 0.008 | -0.0812 | 0.0066 | 0.0569
CCN(CCO)CCCOc1ccc2c(Nc3cc(CC(=O)Nc4cccc(F)c4)[nH]n3)ncnc2c1 [AZD2811] + C[C@@H]1COCCN1C2=NC(=NC(=C2)C3(CC3)[S@](=N)(=O)C)C4=C5C=CNC5=NC=C4 [AZD6738] (first compound max 1 µM, 7x7, partner max 10 µM) | -0.0649 | -0.0295 | -0.0645 | -0.0209 | -0.0777 | -0.0063 | 0.0099 | -0.0191 | -0.0543 | 0.037 | -0.0744 | -0.0811 | -0.0552 | -0.0406 | -0.0153 | -0.0872 | -0.0813 | -0.0432 | -0.042
CCN(CCO)CCCOc1ccc2c(Nc3cc(CC(=O)Nc4cccc(F)c4)[nH]n3)ncnc2c1 [AZD2811] + O=C(c1cc(Cc2n[nH]c(=O)c3ccccc23)ccc1F)N1CCN(C(=O)C2CC2)CC1 [Olaparib] (first compound max 1 µM, 7x7, partner max 10 µM) | -0.0317 | -0.0134 | 0.0112 | -0.0237 | 0.0008 | -0.0125 | 0.0013 | 0.0484 | -0.0564 | 0.009 | 0.0083 | -0.0192 | -0.0632 | 0.022 | 0.0678 | 0.0075 | 0.0119 | -0.0188 | -0.0359
C[C@@H]1COCCN1c1cc(C2([S@](C)(=N)=O)CC2)nc(-c2ccnc3[nH]ccc23)n1 [AZD6738] + O=C(c1cc(Cc2n[nH]c(=O)c3ccccc23)ccc1F)N1CCN(C(=O)C2CC2)CC1 [Olaparib] (first compound max 10 µM, 7x7, partner max 10 µM) | -0.0208 | 0.0377 | -0.0192 | -0.0464 | 0.0117 | -0.0465 | 0.0171 | -0.0108 | -0.098 | 0.0142 | 0.0336 | -0.0002 | 0.0331 | -0.0194 | 0.0116 | 0.0205 | -0.0056 | 0.0132 | 0.0227
Cc1cc2ncnn2cc1Nc1ncc2c(n1)n(C1CCOCC1)c(=O)n2C [AZD7648] + C=CCn1c(=O)c2cnc(Nc3ccc(N4CCN(C)CC4)cc3)nc2n1-c1cccc(C(C)(C)O)n1 [AZD1775] (first compound max 10 µM, partner max 1 µM) | -0.0501 | 0.0337 | 0.0062 | 0.0073 | -0.0186 | 0.0223 | -0.0417 | -0.0152 | 0.131 | -0.052 | -0.0611 | -0.121 | -0.0169 | -0.0429 | 0.0018 | -0.026 | 0.0321 | -0.0109 | 0.015
Cc1cc2ncnn2cc1Nc1ncc2c(n1)n(C1CCOCC1)c(=O)n2C [AZD7648] + CCN(CCO)CCCOc1ccc2c(Nc3cc(CC(=O)Nc4cccc(F)c4)[nH]n3)ncnc2c1 [AZD2811] (first compound max 10 µM, 7x7, partner max 1 µM) | 0.0084 | -0.0396 | 0.0116 | 0.0543 | -0.0057 | -0.0213 | -0.014 | 0.0641 | -0.115 | 0.0312 | -0.0477 | -0.0561 | -0.0223 | 0.0981 | 0.0083 | -0.0303 | 0.0036 | 0.0182 | 0.0518
Cc1cc2ncnn2cc1Nc1ncc2c(n1)n(C1CCOCC1)c(=O)n2C [AZD7648] + CN(C)CCCOc1ccc(-c2ccc3ncc4c(c3c2)n(C2CCOCC2)c(=O)n4C)cn1 [AZD0156] (first compound max 10 µM, 7x7, partner max 1 µM) | -0.064 | -0.003 | -0.0317 | 0.0166 | 0.019 | -0.0383 | 0.0106 | 0.0178 | -0.129 | -0.0313 | -0.0154 | -0.088 | -0.0088 | 0.0094 | 0.0614 | 0.0271 | -0.0326 | -0.0172 | 0.0637
Cc1cc2ncnn2cc1Nc1ncc2c(n1)n(C1CCOCC1)c(=O)n2C [AZD7648] + C[C@@H]1COCCN1C2=NC(=NC(=C2)C3(CC3)[S@](=N)(=O)C)C4=C5C=CNC5=NC=C4 [AZD6738] (first compound max 10 µM, 7x7, partner max 10 µM) | -0.0229 | 0.0206 | 0.0339 | 0.0337 | 0.0074 | -0.0193 | -0.0011 | 0.0015 | 0.0654 | -0.0581 | 0.0485 | -0.0744 | 0.0123 | -0.0596 | 0.0328 | 0.0195 | -0.0321 | 0.0345 | 0.0663
Cc1cc2ncnn2cc1Nc1ncc2c(n1)n(C1CCOCC1)c(=O)n2C [AZD7648] + O=C(c1cc(Cc2n[nH]c(=O)c3ccccc23)ccc1F)N1CCN(C(=O)C2CC2)CC1 [Olaparib] (first compound max 10 µM, 7x7, partner max 10 µM) | -0.0418 | -0.0213 | -0.0965 | -0.0316 | -0.035 | -0.0399 | -0.0133 | -0.007 | -0.0639 | 0.0303 | 0.0067 | -0.0325 | 0.0148 | -0.0382 | -0.0102 | -0.0345 | -0.004 | 0.0023 | -0.0241
COc1cccc2c1C(=O)c1c(O)c3c(c(O)c1C2=O)C[C@@](O)(C(=O)CO)C[C@@H]3O[C@H]1C[C@H](N)[C@H](O)[C@H](C)O1 [Doxorubicin] + Cc1cc2ncnn2cc1Nc1ncc2c(n1)n(C1CCOCC1)c(=O)n2C [AZD7648] (first compound max 1 µM, 7x7, partner max 10 µM) | 0.0251 | 0.123 | 0.0257 | 0.007 | 0.0022 | 0.0507 | 0.049 | 0.109 | -0.0346 | 0.0271 | 0.0858 | 0.0412 | 0.0388 | 0.0827 | 0.0851 | -0.0041 | 0.027 | 0.145 | 0.0411
COc1cccc(OCCCN)c1-c1cc(Nc2cnc(C#N)cn2)n[nH]1 [Prexasertib] + C=CCn1c(=O)c2cnc(Nc3ccc(N4CCN(C)CC4)cc3)nc2n1-c1cccc(C(C)(C)O)n1 [AZD1775] (first compound max 1 µM, partner max 1 µM) | 0.0282 | 0.0186 | -0.0232 | 0.0491 | 0.0044 | 0.0165 | 0.0774 | 0.195 | -0.126 | 0.0835 | 0.168 | -0.0242 | -0.0004 | 0.0778 | 0.0573 | 0.125 | 0.0408 | 0.0888 | 0.0252
COc1cccc(OCCCN)c1-c1cc(Nc2cnc(C#N)cn2)n[nH]1 [Prexasertib] + CN(C)CCCOc1ccc(-c2ccc3ncc4c(c3c2)n(C2CCOCC2)c(=O)n4C)cn1 [AZD0156] (first compound max 1 µM, 7x7, partner max 1 µM) | -0.0425 | -0.058 | 0.0132 | -0.0703 | -0.0279 | -0.0346 | -0.0463 | -0.0052 | -0.0684 | 0.023 | 0.0252 | 0.0101 | 0.0508 | 0.0117 | 0.0208 | 0.061 | -0.0167 | -0.0434 | 0.0113
COc1cccc(OCCCN)c1-c1cc(Nc2cnc(C#N)cn2)n[nH]1 [Prexasertib] + C[C@@H]1COCCN1C2=NC(=NC(=C2)C3(CC3)[S@](=N)(=O)C)C4=C5C=CNC5=NC=C4 [AZD6738] (first compound max 1 µM, 7x7, partner max 10 µM) | -0.0707 | -0.0013 | 0.0453 | -0.0371 | -0.0214 | -0.0395 | 0.0318 | 0.0164 | 0.005 | -0.0994 | 0.019 | -0.0779 | 0.0442 | -0.0186 | 0.0032 | 0.0369 | 0.0637 | 0.0261 | 0.0187
COc1cccc(OCCCN)c1-c1cc(Nc2cnc(C#N)cn2)n[nH]1 [Prexasertib] + Cc1cc2ncnn2cc1Nc1ncc2c(n1)n(C1CCOCC1)c(=O)n2C [AZD7648] (first compound max 1 µM, 7x7, partner max 10 µM) | -0.0628 | -0.0076 | -0.0566 | -0.0111 | -0.0002 | -0.0105 | -0.0841 | -0.018 | -0.058 | -0.0574 | -0.0865 | -0.0453 | 0.025 | -0.0355 | -0.009 | 0.0227 | -0.0048 | -0.0393 | -0.0027
